Source: BindingDB's records for doi:10.1021/acs.jmedchem.5b01516 (Centre Hospitalier Universitaire Vaudois (Chuv), 2016)

Target: Presenilin-1 (Homo sapiens, UniProt P49768)
Test: Inhibition of gamma secretase (unknown origin)

- IC50: 11 nM
Structure (SMILES): CC(C)[C@H](O)C(=O)N[C@@H](C)C(=O)NC1C(=O)N(C)CCc2ccccc21 (stereo partly drawn) [(2S)-2-hydroxy-3-methyl-N-[(1S)-1-{[(1S)-3-methyl-2-oxo-2,3,4,5-tetrahydro-1H-3-benzazepin-1-yl]carbamoyl}ethyl]butanamide]
